From PubChem BioAssay (NCI)
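Results reflect a 48-hour exposure of cells in 96-well plates to compound at five concentrations. GI50: concentration for 50% inhibition of growth. Definition used: TGI = concentration required for complete inhibition of growth.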

How the values were obtained:
Assay in all cases: growth of human tumour cells (NCI), 48 h
HL-60(TB) leukemia = system: HL-60(TB) leukemia
KM12 colon = system: KM12 colon
LOX IMVI melanoma = system: LOX IMVI melanoma
MDA-MB-435 = system: MDA-MB-435
NCI/ADR-RES ovarian = system: NCI/ADR-RES ovarian
SF-268 CNS = system: SF-268 CNS
SK-OV-3 ovarian = system: SK-OV-3 ovarian
T-47D breast = system: T-47D breast
U251 CNS = system: U251 CNS
SR leukemia = system: SR leukemia

SMILES	TGI (HL-60(TB) leukemia)	GI50 (KM12 colon)	TGI (KM12 colon)	TGI (LOX IMVI melanoma)	TGI (MDA-MB-435)	GI50 (NCI/ADR-RES ovarian)	TGI (NCI/ADR-RES ovarian)	GI50 (SF-268 CNS)	TGI (SF-268 CNS)	GI50 (SK-OV-3 ovarian)	TGI (SK-OV-3 ovarian)	GI50 (T-47D breast)	TGI (T-47D breast)	GI50 (U251 CNS)	TGI (U251 CNS)	GI50 (HL-60(TB) leukemia)	GI50 (LOX IMVI melanoma)	GI50 (MDA-MB-435)	GI50 (SR leukemia)	TGI (SR leukemia)
c1cc(N2CCN(c3ccc(C4=NCCCN4)cc3)CC2)ccc1C1=NCCCN1	> 89 µM	> 42.1 µM	> 100 µM	> 77.9 µM	> 20.3 µM	> 100 µM	> 100 µM	> 75.8 µM	> 100 µM	> 100 µM	> 100 µM	> 100 µM	> 100 µM	> 74.6 µM	> 100 µM	–	–	–	–	–
Cc1[nH]c(-c2cc(N)ccc2Cl)c2c1C(=O)CCCC2	6.79 µM	5.47 µM	> 100 µM	7.39 µM	19.5 µM	4.78 µM	> 100 µM	7.99 µM	> 100 µM	3.56 µM	36.6 µM	3.47 µM	> 100 µM	5.75 µM	> 100 µM	2.03 µM	2.25 µM	3.24 µM	2.64 µM	> 100 µM
C[n+]1c2ccccc2nc2c(N)cc(N)cc21	35.8 µM	13.7 µM	> 100 µM	94 µM	41.5 µM	83.3 µM	> 100 µM	0.712 µM	13.6 µM	25.8 µM	> 100 µM	3.95 µM	40.9 µM	2.5 µM	> 100 µM	6.39 µM	18 µM	15.9 µM	–	–
CN=C1OC2(c3ccccc3)C3=C(OC(=NC)N2C)C(=O)OC3(c2ccccc2)N1C (stereo not drawn)	> 100 µM	–	> 100 µM	–	–	–	> 100 µM	–	> 100 µM	–	> 100 µM	–	> 100 µM	–	> 100 µM	–	–	–	–	> 100 µM
COc1cc2ncc3c(nc4sccn43)c2cc1OC	–	8.38 µM	> 100 µM	> 100 µM	> 100 µM	93.3 µM	> 100 µM	> 100 µM	> 100 µM	30.1 µM	> 100 µM	29.2 µM	> 100 µM	16.5 µM	39.3 µM	–	15.6 µM	27.2 µM	12.4 µM	41.7 µM
CC(C)C[C@H](NC(=O)CCn1ccc2ccccc2c1=O)B(O)O	49.5 µM	7.51 µM	29.8 µM	6.78 µM	2.81 µM	67.1 µM	> 100 µM	5.69 µM	30.4 µM	4.72 µM	81.3 µM	3.71 µM	29.3 µM	4.23 µM	> 100 µM	2.69 µM	2.11 µM	1.27 µM	1.7 µM	28.9 µM
COc1cc(/C=C/c2ccc3c(Br)cc(Br)c(O)c3n2)ccc1O	2.92 µM	1.41 µM	13.2 µM	11.4 µM	19.6 µM	0.327 µM	1.49 µM	1.31 µM	14.8 µM	6.62 µM	31.8 µM	2.13 µM	14.7 µM	0.636 µM	10.9 µM	0.46 µM	0.977 µM	3.38 µM	0.476 µM	3.41 µM
CC1C=CC(OC(=O)C(C)(O)CCC(O)(C(=O)OC2CC(O)C(C(C)C)CC2(C)O)C(C)C)(C(C)C)CC1 (stereo not drawn)	1.68 µM	0.689 µM	1.45 µM	0.142 µM	1.13 µM	0.725 µM	2.22 µM	0.645 µM	1.64 µM	0.799 µM	4.1 µM	0.292 µM	1.81 µM	0.582 µM	1.32 µM	0.655 µM	0.0734 µM	0.521 µM	0.263 µM	46.3 µM
Cc1cc(C)c(C2CNCc3cc4c(cc32)CNCC4c2c(C)cc(C)cc2C)c(C)c1 (stereo not drawn)	4.3 µg/mL	2.6 µg/mL	6.74 µg/mL	4.31 µg/mL	3.84 µg/mL	6.38 µg/mL	19.5 µg/mL	3.17 µg/mL	9.96 µg/mL	10.2 µg/mL	21.8 µg/mL	2.68 µg/mL	7.65 µg/mL	2.54 µg/mL	5.59 µg/mL	1.81 µg/mL	1.85 µg/mL	1.88 µg/mL	0.303 µg/mL	1 µg/mL
O=C(O)c1ccccc1NC(=S)c1ccccc1	98.3 µM	–	> 100 µM	> 100 µM	> 100 µM	–	> 100 µM	–	> 100 µM	–	> 100 µM	–	> 100 µM	–	> 100 µM	–	–	–	–	–
Fc1ccc(/C=N/n2c(-c3ccc(F)c(Cl)c3)n[nH]c2=S)cc1	> 100 µM	43.6 µM	> 100 µM	–	> 100 µM	23.4 µM	59.4 µM	19.8 µM	42.1 µM	22 µM	38.5 µM	20.7 µM	40.1 µM	–	–	34.8 µM	–	57.7 µM	12.9 µM	27.9 µM
CSc1ccc(C2=NN(C(C)=O)C(c3ccc(-c4ccc(Cl)cc4)o3)C2)cc1 (stereo not drawn)	> 100 µM	24 µM	> 100 µM	> 100 µM	> 100 µM	41.4 µM	> 100 µM	21.7 µM	71.4 µM	28.9 µM	> 100 µM	17.9 µM	79.6 µM	31.3 µM	> 100 µM	15.3 µM	32.8 µM	29.2 µM	–	–
COc1cc2cc(Oc3ccc(NC(=O)c4ccc(Cl)c(Cl)c4)cc3)c(C)nc2cc1OC	> 100 µM	12.7 µM	> 100 µM	> 100 µM	> 100 µM	–	–	> 100 µM	> 100 µM	> 100 µM	> 100 µM	3.28 µM	> 100 µM	> 100 µM	> 100 µM	> 100 µM	> 100 µM	> 100 µM	19.6 µM	> 100 µM
COc1cc(C(=O)Nc2cc(O)c(CC=C(C)C)c(O)c2)cc2c1O[C@]1(C)CC[C@@H](O)C(C)(C)[C@H]1C2	–	1.76 µM	12.9 µM	10.3 µM	41.4 µM	29.8 µM	> 100 µM	1.79 µM	39.3 µM	0.729 µM	17.3 µM	1.12 µM	14.3 µM	0.0399 µM	17.4 µM	–	0.281 µM	0.703 µM	0.0624 µM	> 100 µM
O=Nc1c(-c2c(O)[nH]c3ncccc23)[nH]c2ccccc12	> 100 µM	1.32 µM	> 100 µM	> 100 µM	> 100 µM	> 100 µM	> 100 µM	> 100 µM	> 100 µM	–	–	2.99 µM	> 100 µM	> 100 µM	> 100 µM	7.58 µM	5.32 µM	> 100 µM	0.274 µM	> 100 µM
Cc1ccc(C2C3Cc4ccccc4C3=NN2c2ccc(S(=O)(=O)/N=c3\scc(-c4ccccc4)n3-c3ccccc3)cc2)cc1 (stereo not drawn)	31.5 µM	20.2 µM	65.2 µM	31.2 µM	37.7 µM	–	–	16.7 µM	42 µM	33.1 µM	> 100 µM	35.5 µM	> 100 µM	18.7 µM	37.8 µM	14.5 µM	17.4 µM	17.6 µM	11.1 µM	24.5 µM
COc1ccc(/C=C(\C)[N+](=O)[O-])cc1OC	–	4.49 µM	16.4 µM	2.97 µM	3.94 µM	3.55 µM	13.4 µM	2.26 µM	5.46 µM	13.9 µM	27.4 µM	1.88 µM	5.1 µM	4.39 µM	15.9 µM	–	1.36 µM	1.86 µM	2.04 µM	> 100 µM
C=CCc1cc(Nc2c3ccc(Cl)cc3nc3ccc(OC)cc23)cc(CN(CC)CC)c1O	–	2.08 µM	12.3 µM	2.58 µM	11.8 µM	2.88 µM	10.8 µM	2.9 µM	16 µM	1.9 µM	6.62 µM	0.499 µM	4.28 µM	0.802 µM	10.8 µM	–	1.23 µM	2.3 µM	0.362 µM	3.47 µM
Oc1cccc2c1NCCC2	7.84 µM	0.903 µM	> 100 µM	> 36.7 µM	> 100 µM	1.25 µM	30.4 µM	0.244 µM	> 67.2 µM	0.891 µM	> 100 µM	0.581 µM	96.2 µM	0.102 µM	> 100 µM	0.194 µM	0.119 µM	0.122 µM	–	–
C/C(=N\O)c1cccc(Nc2cc(-n3ccnc3)c3ccccc3n2)c1	–	10.5 µM	31.8 µM	–	24.4 µM	17.2 µM	59.2 µM	> 100 µM	> 100 µM	20.9 µM	60.5 µM	9.32 µM	35.8 µM	12.4 µM	28.7 µM	–	–	10.9 µM	–	–
Fc1cccc(F)c1C(Nc1nncs1)Nc1nncs1	–	–	> 100 µM	–	> 100 µM	–	> 100 µM	–	> 100 µM	–	> 100 µM	–	> 100 µM	–	> 100 µM	–	–	–	–	–
Cc1[nH]nc(-c2ccon2)c1N=O	36.3 µM	–	38.4 µM	–	41 µM	–	38 µM	–	42.8 µM	–	89.2 µM	–	60.5 µM	–	32.8 µM	–	–	–	–	29.5 µM
